Legend:
[1] = Crystallization study of formulation containing fludioxonil (storage, 325 mesh sieve residue); format: physicochemical; settings: 2 weeks Condition 1 then 2 weeks at 25° C. or 5° C., FIG. 3
Method: A formulation containing 0.72% w/w fludioxonil, 0.72% w/w picarbutrazox, 1.43% w/w sedaxane, 4.30% w/w thiabendazole and 1.07% w/w mefenoxam was prepared with castor oil or MK 116 Wax or soybean oil as the flow aid. Castor oil loading was maintained at 10% w/w. MK 116 wax loading was maintained at 5% w/w, whereas soybean oil concentration was varied over a range of 5-12% w/w. The formulation was aliquoted into 50 g samples and placed at temperatures of 50° C., 45° C. 38° C., a freeze thaw cycle going from 50° C. to −10° C. and at 25° C. These formulations were stored for 2 weeks at the indicated conditions (Condition 1), after which they were removed and placed at 25° C. or 5° C. for 2 weeks (Condition 2). After completion of the storage regime, the formulations were diluted with 200 mL of water and poured through a 325 mesh sieve. The residue was collected and analysed for the presence of fludioxonil.

[2] = Solubility of fludioxonil in various vegetable oils; format: physicochemical; settings: 5C, 25C and 50C, FIG. 1
Method: 0.5 g of fludioxonil technical was mixed separately with 5 g of various oils (peanut oil, castor oil, cottonseed oil, olive oil, canola oil, linseed oil, sunflower oil, safflower oil, corn oil, and soybean oil) and incubated at 3 different temperatures (5C, 25C and 50C). The mixtures were then centrifuged and the clear oil supernatant was recovered and analyzed for fludioxonil content.

N#Cc1c[nH]cc1-c1cccc2c1OC(F)(F)O2 [fludioxonil]
loss of fludioxonil (fludioxonil content of sieve residue) ([1]; MK 116 wax 5% w/w as flow aid): resulted in loss of fludioxonil | loss of fludioxonil (fludioxonil content of sieve residue) ([1]; castor oil 10% w/w as flow aid): did not | loss of fludioxonil (fludioxonil content of sieve residue) ([1]; soybean oil 5-12% w/w as flow aid): resulted in loss of fludioxonil | solubility of fludioxonil in oil ([2]; all other oils (peanut, cottonseed, olive, canola, linseed, sunflower, safflower, corn, soybean)): essentially the same solubilities | solubility of fludioxonil in oil ([2]; castor oil): significantly improved solubility

— patent US20240415114A1, “AGROCHEMICAL FORMULATIONS FOR MITIGATING CRYSTALLIZATION” (SYNGENTA CROP PROTECTION AG, priority 2021, published 2024)
